Test results: US20100311714A1, “1H-IMIDAZO[4,5-c]QUINOLINONE COMPOUNDS” (priority 2009, published 2010)

Target: T1, PI3K beta (Homo sapiens, UniProt P42338)
T1 construct: for the full-length p110-b subunit are generated and fused by overlapping PCR; His tag (C); made in house; host or cells: baculovirus BV949; Tn5 (Trichoplusia ni) or TiniPro insect cells
Test: PI3K beta kinase assay (Kinase-Glo luminescence)
Assay type: biochemical
Conditions: read-out: EPK_PI3Kbeta/IC50
How it was run: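 Kinase-Glo luminescence read out ATP left after a 60-min room-temperature reaction, started with ATP (1 μM final) on 25 nM His-tagged p85 iSH2–p110β (BV949) plus 10 μg/mL PI substrate in pH 7.5 Tris buffer. Percent inhibition at eight concentrations was fitted to a four-parameter logistic model for IC50.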

T1 sequence (P42338 with tags, fused parts or gaps limits assumed): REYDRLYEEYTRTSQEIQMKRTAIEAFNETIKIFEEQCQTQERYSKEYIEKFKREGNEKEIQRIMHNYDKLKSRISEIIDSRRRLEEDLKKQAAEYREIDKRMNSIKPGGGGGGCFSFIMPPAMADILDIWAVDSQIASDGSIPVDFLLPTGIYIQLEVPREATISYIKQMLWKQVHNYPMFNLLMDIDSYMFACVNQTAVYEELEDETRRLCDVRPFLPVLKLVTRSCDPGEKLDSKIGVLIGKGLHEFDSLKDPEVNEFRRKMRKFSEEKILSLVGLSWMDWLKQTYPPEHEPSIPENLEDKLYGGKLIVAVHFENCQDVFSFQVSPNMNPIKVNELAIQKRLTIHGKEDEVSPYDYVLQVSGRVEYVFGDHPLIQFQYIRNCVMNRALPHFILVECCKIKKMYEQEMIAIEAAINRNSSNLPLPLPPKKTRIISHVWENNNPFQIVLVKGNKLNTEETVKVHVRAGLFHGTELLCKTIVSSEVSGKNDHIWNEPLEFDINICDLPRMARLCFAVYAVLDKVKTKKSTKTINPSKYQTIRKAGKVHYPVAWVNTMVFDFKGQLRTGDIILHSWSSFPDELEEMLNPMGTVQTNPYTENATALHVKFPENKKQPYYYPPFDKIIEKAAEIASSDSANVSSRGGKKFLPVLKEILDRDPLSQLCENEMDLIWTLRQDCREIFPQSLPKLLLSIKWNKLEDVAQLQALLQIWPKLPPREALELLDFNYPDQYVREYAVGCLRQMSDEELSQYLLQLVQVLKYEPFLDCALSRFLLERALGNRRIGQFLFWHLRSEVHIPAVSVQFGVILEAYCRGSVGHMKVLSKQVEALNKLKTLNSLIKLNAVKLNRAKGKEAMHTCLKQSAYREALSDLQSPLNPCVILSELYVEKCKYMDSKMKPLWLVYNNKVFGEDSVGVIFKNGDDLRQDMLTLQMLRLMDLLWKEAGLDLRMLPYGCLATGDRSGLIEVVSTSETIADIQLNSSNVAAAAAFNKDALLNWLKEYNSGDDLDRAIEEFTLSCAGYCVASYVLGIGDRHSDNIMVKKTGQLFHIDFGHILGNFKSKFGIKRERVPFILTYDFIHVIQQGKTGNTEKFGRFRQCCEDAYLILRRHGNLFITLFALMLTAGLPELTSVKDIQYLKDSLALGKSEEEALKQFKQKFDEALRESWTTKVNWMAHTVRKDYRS

IC50 [nM] | SMILES
20 | COCCOc1ccc(-n2c(=O)n(C)c3cnc4ccc(-c5cnc(N)c(C(F)(F)F)c5)cc4c32)c(C)n1 [Example 13.2, 8-(6-Amino-5-trifluoromethyl-pyridin-3-yl)-1-[6-(2-methoxy-ethoxy)-2-methyl-pyridin-3-yl]-3-methyl-1,3-dihydro-imidazo[4,5-c]quinolin-2-one]
541 | CNc1ncc(-c2ccc3ncc4c(c3c2)n(-c2ccc(N(C)CCOC)nc2C)c(=O)n4C)cn1 [Example 15.2, 1-{6-[(2-Methoxy-ethyl)-methyl-amino]-2-methyl-pyridin-3-yl}-3-methyl-8-(2-methylamino-pyrimidin-5-yl)-1,3-dihydro-imidazo[4,5-c]quinolin-2-one]
658 | CNc1ncc(-c2ccc3ncc4c(c3c2)n(-c2ccc(OCCOC)nc2C)c(=O)n4C)cn1 [Example 13.5, 1-[6-(2-Methoxy-ethoxy)-2-methyl-pyridin-3-yl]-3-methyl-8-(2-methylamino-pyrimidin-5-yl)-1,3-dihydro-imidazo[4,5-c]quinolin-2-one]
1180 | CNc1ncc(-c2ccc3ncc4c(c3c2)n(-c2cnc(F)cc2C)c(=O)n4C)cn1 [Example 16.3, 1-(6-Fluoro-4-methyl-pyridin-3-yl)-3-methyl-8-(2-methylamino-pyrimidin-5-yl)-1,3-dihydro-imidazo[4,5-c]quinolin-2-one]
42 | CNc1ncc(-c2ccc3ncc4c(c3c2)n(-c2ccc(F)nc2C)c(=O)n4C)cc1C(F)(F)F [Example 7.13, 1-(6-Fluoro-2-methyl-pyridin-3-yl)-3-methyl-8-(6-methylamino-5-trifluoromethyl-pyridin-3-yl)-1,3-dihydro-imidazo[4,5-c]quinolin-2-one]
13 | Cc1nc(N2CCC(O)C2)ccc1-n1c(=O)n(C)c2cnc3ccc(-c4cncc(OC(C)C)c4)cc3c21 (centres unmarked) [Example 27.1, 1-[6-(3-Hydroxy-pyrrolidin-1-yl)-2-methyl-pyridin-3-yl]-8-(5-isopropoxy-pyridin-3-yl)-3-methyl-1,3-dihydro-imidazo[4,5-c]quinolin-2-one]
2590 | COc1ccc(-n2c(=O)n(C)c3cnc4ccc(-c5cnc(CO)c(OC)c5)cc4c32)c(C)n1 [Example 11.8, 8-(6-Hydroxymethyl-5-methoxy-pyridin-3-yl)-1-(6-methoxy-2-methyl-pyridin-3-yl)-3-methyl-1,3-dihydro-imidazo[4,5-c]quinolin-2-one]
1100 | Cc1ccc(-n2c(=O)n(C)c3cnc4ccc(-c5cnc6c(ccn6C)c5)cc4c32)c(C)n1 [Example 14.7, 1-(2,6-Dimethyl-pyridin-3-yl)-3-methyl-8-(1-methyl-1H-pyrrolo[2,3-b]pyridin-5-yl)-1,3-dihydro-imidazo[4,5-c]quinolin-2-one]
68 | CNc1cc(-c2ccc3ncc4c(c3c2)n(-c2ccc(N(C)C)nc2C)c(=O)n4C)cnc1C [Example 19.2, 1-(6-Dimethylamino-2-methyl-pyridin-3-yl)-3-methyl-8-(6-methyl-5-methylamino-pyridin-3-yl)-1,3-dihydro-imidazo[4,5-c]quinolin-2-one]
38 | CNc1cc(-c2ccc3ncc4c(c3c2)n(-c2ccc(C(F)(F)F)nc2C)c(=O)n4C)cnc1CO [Example 33.2, 8-(6-Hydroxymethyl-5-methylamino-pyridin-3-yl)-3-methyl-1-(2-methyl-6-trifluoromethyl-pyridin-3-yl)-1,3-dihydro-imidazo[4,5-c]quinolin-2-one]
47 | Cc1cc(F)ncc1-n1c(=O)n(C)c2cnc3ccc(-c4cnc(N)c(C(F)(F)F)c4)cc3c21 [Example 16.1, 8-(6-Amino-5-trifluoromethyl-pyridin-3-yl)-1-(6-fluoro-4-methyl-pyridin-3-yl)-3-methyl-1,3-dihydro-imidazo[4,5-c]quinolin-2-one]
746 | COCCOc1ccc(-n2c(=O)n(C)c3cnc4ccc(-c5cncc(N6CCC6)c5)cc4c32)c(C)n1 [Example 22.2, 8-(5-Azetidin-1-yl-pyridin-3-yl)-1-[6-(2-methoxy-ethoxy)-2-methyl-pyridin-3-yl]-3-methyl-1,3-dihydro-imidazo[4,5-c]quinolin-2-one]
150 | CCNc1cc(-c2ccc3ncc4c(c3c2)n(-c2cnc(F)cc2C)c(=O)n4C)cnc1C [Example 16.2, 8-(5-Ethylamino-6-methyl-pyridin-3-yl)-1-(6-fluoro-4-methyl-pyridin-3-yl)-3-methyl-1,3-dihydro-imidazo[4,5-c]quinolin-2-one]
194 | CCOCc1cc(-c2ccc3ncc4c(c3c2)n(-c2ccc(F)nc2C)c(=O)n4C)cnc1N [Example 7.15, 8-(6-Amino-5-ethoxymethyl-pyridin-3-yl)-1-(6-fluoro-2-methyl-pyridin-3-yl)-3-methyl-1,3-dihydro-imidazo[4,5-c]quinolin-2-one]
43 | COCCOc1cc(-c2ccc3ncc4c(c3c2)n(-c2ccc(OC)nc2OC)c(=O)n4C)cnc1C [Example 8.9, 1-(2,6-Dimethoxy-pyridin-3-yl)-8-[5-(2-methoxy-ethoxy)-6-methyl-pyridin-3-yl]-3-methyl-1,3-dihydro-imidazo[4,5-c]quinolin-2-one]
50 | CCNc1cc(-c2ccc3ncc4c(c3c2)n(-c2ccc(C)nc2C)c(=O)n4C)cnc1C [Example 14.6, 1-(2,6-Dimethyl-pyridin-3-yl)-8-(5-ethylamino-6-methyl-pyridin-3-yl)-3-methyl-1,3-dihydro-imidazo[4,5-c]quinolin-2-one]
154 | CCN(C)c1ccc(-n2c(=O)n(C)c3cnc4ccc(-c5ccc(NC)nc5)cc4c32)c(C)n1 [Example 12.1, 1-[6-(Ethyl-methyl-amino)-2-methyl-pyridin-3-yl]-3-methyl-8-(6-methylamino-pyridin-3-yl)-1,3-dihydro-imidazo[4,5-c]quinolin-2-one]
2760 | CNc1ncc(-c2ccc3ncc4c(c3c2)n(-c2ccc(NC(=O)COC)nc2C)c(=O)n4C)cn1 [Example 20.3, 2-Methoxy-N-{6-methyl-5-[3-methyl-8-(2-methylamino-pyrimidin-5-yl)-2-oxo-2,3-dihydro-imidazo[4,5-c]quinolin-1-yl]-pyridin-2-yl}-acetamide]
3950 | CCOc1ccc(-c2ccc3ncc4c(c3c2)n(-c2cncc(C)c2)c(=O)n4C)cn1 [Example 17.1, 8-(6-Ethoxy-pyridin-3-yl)-3-methyl-1-(5-methyl-pyridin-3-yl)-1,3-dihydro-imidazo[4,5-c]quinolin-2-one]
201 | CCOc1cc(-c2ccc3ncc4c(c3c2)n(-c2cccnc2C)c(=O)n4C)cnc1C [Example 2.22, 8-(5-Ethoxy-6-methyl-pyridin-3-yl)-3-methyl-1-(2-methyl-pyridin-3-yl)-1,3-dihydro-imidazo[4,5-c]quinolin-2-one]
261 | Cc1cc(F)ncc1-n1c(=O)n(C)c2cnc3ccc(-c4cnc5c(ccn5C)c4)cc3c21 [Example 16.5, 1-(6-Fluoro-4-methyl-pyridin-3-yl)-3-methyl-8-(1-methyl-1H-pyrrolo[2,3-b]pyridin-5-yl)-1,3-dihydro-imidazo[4,5-c]quinolin-2-one]
1330 | CNc1ccc(-c2ccc3ncc4c(c3c2)n(-c2cnc(F)cc2C)c(=O)n4C)cn1 [Example 16.4, 1-(6-Fluoro-4-methyl-pyridin-3-yl)-3-methyl-8-(6-methylamino-pyridin-3-yl)-1,3-dihydro-imidazo[4,5-c]quinolin-2-one]
300 | Cc1nc(N(C)C)ccc1-n1c(=O)n(C)c2cnc3ccc(-c4cncc(N)c4)cc3c21 [Example 19.5, 8-(5-Amino-pyridin-3-yl)-1-(6-dimethylamino-2-methyl-pyridin-3-yl)-3-methyl-1,3-dihydro-imidazo[4,5-c]quinolin-2-one]
502 | CNc1ccc(-c2ccc3ncc4c(c3c2)n(-c2ccc(OCCOC)nc2C)c(=O)n4C)cn1 [Example 13.3, 1-[6-(2-Methoxy-ethoxy)-2-methyl-pyridin-3-yl]-3-methyl-8-(6-methylamino-pyridin-3-yl)-1,3-dihydro-imidazo[4,5-c]quinolin-2-one]
62 | Cc1nc(C(C)(C)O)ccc1-n1c(=O)n(C)c2cnc3ccc(-c4cncc(OC(C)C)c4)cc3c21 [Example 31.9, 1-[6-(1-Hydroxy-1-methyl-ethyl)-2-methyl-pyridin-3-yl]-8-(5-isopropoxy-pyridin-3-yl)-3-methyl-1,3-dihydro-imidazo[4,5-c]quinolin-2-one]
1340 | COc1ccc(-n2c(=O)n(C)c3cnc4ccc(-c5ccc6nccn6c5)cc4c32)c(OC)n1 [Example 8.10, 1-(2,6-Dimethoxy-pyridin-3-yl)-8-imidazo[1,2-a]pyridin-6-yl-3-methyl-1,3-dihydro-imidazo[4,5-c]quinolin-2-one]
45 | COc1ccc(-n2c(=O)n(C)c3cnc4ccc(-c5cnc(N(C)C)nc5)cc4c32)c(Cl)n1 [Example 18.3, 1-(2-Chloro-6-methoxy-pyridin-3-yl)-8-(2-dimethylamino-pyrimidin-5-yl)-3-methyl-1,3-dihydro-imidazo[4,5-c]quinolin-2-one]
34 | Cc1nc(N2CC(F)(F)C(F)(F)C2)ccc1-n1c(=O)n(C)c2cnc3ccc(-c4cncc(C(C)(C)O)c4)cc3c21 [Example 35.1, 8-[5-(1-Hydroxy-1-methyl-ethyl)-pyridin-3-yl]-3-methyl-1-[2-methyl-6-(3,3,4,4-tetrafluoro-pyrrolidin-1-yl)-pyridin-3-yl]-1,3-dihydro-imidazo[4,5-c]quinolin-2-one]
542 | COCC(=O)Nc1ccc(-n2c(=O)n(C)c3cnc4ccc(-c5cncc(OC(C)C)c5)cc4c32)c(C)n1 [Example 20.5, N-{5-[8-(5-Isopropoxy-pyridin-3-yl)-3-methyl-2-oxo-2,3-dihydro-imidazo[4,5-c]quinolin-1-yl]-6-methyl-pyridin-2-yl}-2-methoxy-acetamide]
